ChEMBL document CHEMBL5528074 (J Med Chem, 2024)
pEC50, pIC50: −log10 of the molar value. Active and inactive are the calls of the source. No cut-off for these calls is given here.

What was measured:
[1] = biological target: T1, G-protein coupled receptor 183 (Homo sapiens, UniProt P32249)
Description: Antagonist activity at GPR183 (unknown origin) transfected in HEK293 cells incubated for 30 mins by Glosensor cAMP assay

[2] = Half life in C57BL/6 mouse at 1 mg/kg, iv measured upto 24 hrs by LC-MS/MS analysis; type: ADME, organism-based; settings: in vivo
[3] = Cmax in C57BL/6 mouse at 1 mg/kg, iv measured upto 24 hrs by LC-MS/MS analysis; type: ADME, organism-based; settings: in vivo
[4] = AUC infinity in C57BL/6 mouse at 1 mg/kg, iv measured upto 24 hrs by LC-MS/MS analysis; type: ADME, organism-based; settings: in vivo
[5] = Apparent volume of distribution in C57BL/6 mouse at 1 mg/kg, iv measured upto 24 hrs by LC-MS/MS analysis; type: ADME, organism-based; settings: in vivo, read-out: Vz
[6] = Clearance in C57BL/6 mouse at 1 mg/kg, iv measured upto 24 hrs by LC-MS/MS analysis; type: ADME, organism-based; settings: in vivo
[7] = Half life in C57BL/6 mouse at 3 mg/kg, po measured upto 24 hrs by LC-MS/MS analysis; type: ADME, organism-based; settings: in vivo
[8] = Cmax in C57BL/6 mouse at 3 mg/kg, po measured upto 24 hrs by LC-MS/MS analysis; type: ADME, organism-based; settings: in vivo
[9] = AUC infinity in C57BL/6 mouse at 3 mg/kg, po measured upto 24 hrs by LC-MS/MS analysis; type: ADME, organism-based; settings: in vivo
[10] = Oral bioavailability in C57BL/6 mouse at 3 mg/kg measured upto 24 hrs by LC-MS/MS analysis; type: ADME, organism-based; settings: in vivo
U-937 [11] = test: Antimigratory activity against human U-937 cells assessed as inhibition of 7alpha,25-dihydroxycholesterol induced cell migration by CCK-8 method; type: functional, cell-based
[12] = Metabolic stability in mouse liver microsomes assessed as intrinsic clearance; type: ADME, Microsome; settings: read-out: CLH
[13] = biological target: T1, G-protein coupled receptor 183; test: Antagonist activity at GPR183 (unknown origin) incubated for 30 mins by calcium mobilization assay; type: functional
[14] = Metabolic stability in human liver microsomes assessed as half life at 10 uM incubated for 60 mins in presence of NADPH/UDPGA by LC-MS/MS analysis; type: ADME, Microsome; settings: 1 h
[15] = Metabolic stability in mouse liver microsomes assessed as half life at 10 uM incubated for 60 mins in presence of NADPH/UDPGA by LC-MS/MS analysis; type: ADME, Microsome; settings: 1 h
[16] = Metabolic stability in dog liver microsomes assessed as half life at 10 uM incubated for 60 mins in presence of NADPH/UDPGA by LC-MS/MS analysis; type: ADME, Canis lupus familiaris, Microsome
[17] = Metabolic stability in monkey liver microsomes assessed as half life at 10 uM incubated for 60 mins in presence of NADPH/UDPGA by LC-MS/MS analysis; type: ADME, Macaca mulatta, Microsome; settings: rhesus monkey, 1 h
[18] = biological target: T1, G-protein coupled receptor 183; test: Antagonist activity at GPR183 (unknown origin) transfected in HEK293 cells assessed as reversal of 7alpha,25-Dihydroxycholesterol induced cAMP reduction incubated for 30 mins by Glosensor cAMP assay; type: functional, cell-based
[19] = biological target: T1, G-protein coupled receptor 183; test: Antagonist activity at GPR183 (unknown origin) transfected in HEK293 cells cotransfected with CRE-luciferase plasmid assessed as restoration of luciferase activity preincubated for 30 mins followed by 7alpha,25-dihydroxycholesterol induction and measured after 4 hrs by dual luciferase assay; type: functional, cell-based
[20] = biological target: T1, G-protein coupled receptor 183; test: Antagonist potency at GPR183 (unknown origin) transfected in HEK293 cells by schild plot analysis; type: cell-based; settings: read-out: pA2 (converted)
[21] = biological target: T1, G-protein coupled receptor 183; test: Antagonist activity at GPR183 (unknown origin) transfected in HEK293 cells co-expressing LgBiT-fused SmBiT-beta-arrestin assessed as reduction in beta-arrestin recruitment using nanoluciferase as substrate incubated for 30 mins by bioluminescence based NanoBiT assay; type: functional, cell-based
[22] = Metabolic stability in rat liver microsomes assessed as compound remaining at 1 uM incubated for 60 mins in presence of NADPH/UDPGA by LC-MS/MS analysis; type: ADME, Microsome; settings: read-out: Stability
[23] = Metabolic stability in mouse liver microsomes assessed as compound remaining at 1 uM incubated for 60 mins in presence of NADPH/UDPGA by LC-MS/MS analysis; type: ADME, Microsome; settings: 1 h
[24] = Metabolic stability in dog liver microsomes assessed as compound remaining at 1 uM incubated for 60 mins in presence of NADPH/UDPGA by LC-MS/MS analysis; type: ADME, Canis lupus familiaris, Microsome; settings: read-out: Stability
[25] = Metabolic stability in monkey liver microsomes assessed as compound remaining at 1 uM incubated for 60 mins in presence of NADPH/UDPGA by LC-MS/MS analysis; type: ADME, Macaca mulatta, Microsome; settings: rhesus monkey, 1 h
[26] = Metabolic stability in human liver microsomes assessed as compound remaining at 1 uM incubated for 60 mins in presence of NADPH/UDPGA by LC-MS/MS analysis; type: ADME, Microsome; settings: 1 h
U-937 [27] = test: Antiinflammatory activity in human U-937 cells assessed as reversal of 7alpha,25-dihydroxycholesterol induced TNFA gene expression at 0.1 to 10 uM incubated for 24 hrs by qPCR analysis; type: functional, cell-based; settings: dose 0.1-10 µM
U-937 [28] = test: Antiinflammatory activity in human U-937 cells assessed as reversal of 7alpha,25-dihydroxycholesterol induced IL1B gene expression at 0.1 to 10 uM incubated for 24 hrs by qPCR analysis; type: functional, cell-based; settings: dose 0.1-10 µM
U-937 [29] = test: Cytotoxicity against human U-937 cells measured after 72 hrs by CCK8 method; type: functional, cell-based
Mus musculus [30] = test: Antiinflammatory activity against C57BL/6 mouse assessed as mitigation of DSS induced body weight loss administered as po measured for 10 days; type: functional, organism-based; settings: dose 3-10 mg/kg, time 10.0 day
Mus musculus [31] = test: Antiinflammatory activity against DSS-induced colitis C57BL/6 mouse model assessed as reduction in disease activity index (DAI) score at 3 mg/kg, po measured for 8 days; type: functional, organism-based; settings: time 8.0 day
Mus musculus [32] = test: Antiinflammatory activity against DSS-induced colitis C57BL/6 mouse model assessed as amelioration of inflammatory response at 3 to 10 mg/kg, po by H and E staining based analysis; type: functional, organism-based; settings: dose 3-10 mg/kg
Mus musculus [33] = test: Antiinflammatory activity against DSS-induced colitis C57BL/6 mouse model assessed as amelioration of colonic damage at 3 to 10 mg/kg, po by H and E staining based analysis; type: functional, organism-based; settings: dose 3-10 mg/kg
Mus musculus [34] = test: Antiinflammatory activity against DSS-induced colitis C57BL/6 mouse model assessed as reduction in Tnf-alpha expression in colon at 3 to 10 mg/kg, po; type: functional, organism-based; settings: dose 3-10 mg/kg
Mus musculus [35] = test: Antiinflammatory activity against DSS-induced colitis C57BL/6 mouse model assessed as reduction in Il1-beta expression in colon at 3 to 10 mg/kg, po; type: functional, organism-based; settings: dose 3-10 mg/kg
Mus musculus [36] = test: Antiinflammatory activity against DSS-induced colitis C57BL/6 mouse model assessed as increase in CREB phosphorylation level at 3 to 10 mg/kg, po by immunohistochemical analysis; type: functional, organism-based; settings: dose 3-10 mg/kg
[37] = Toxicity in C57BL/6 mouse assessed as effect on heart at 3 mg/kg, po by H and E staining based analysis; type: organism-based; settings: in vivo
[38] = Toxicity in C57BL/6 mouse assessed as effect on liver at 3 mg/kg, po by H and E staining based analysis; type: organism-based; settings: in vivo
[39] = Toxicity in C57BL/6 mouse assessed as effect on spleen at 3 mg/kg, po by H and E staining based analysis; type: organism-based; settings: in vivo
[40] = Toxicity in C57BL/6 mouse assessed as effect on lung at 3 mg/kg, po by H and E staining based analysis; type: organism-based; settings: in vivo
[41] = Toxicity in C57BL/6 mouse assessed as effect on kidney at 3 mg/kg, po by H and E staining based analysis; type: organism-based; settings: in vivo
[42] = Toxicity in C57BL/6 mouse assessed as drug tolerance at 3 mg/kg, po by H and E staining based analysis; type: organism-based; settings: in vivo
[43] = biological target: T1, G-protein coupled receptor 183; test: Agonist activity at GPR183 (unknown origin) transfected in HEK293 cells assessed as reduction in forskolin induced cAMP generation incubated for 30 mins by Glosensor cAMP assay; type: functional, cell-based
[44] = biological target: T1, G-protein coupled receptor 183; test: Agonist activity at GPR183 (unknown origin) transfected in HEK293 cells cotransfected with CRE-luciferase plasmid assessed as impairment of forskolin induced luciferase activity preincubated for 30 mins followed by forskolin induction and measured after 4 hrs by dual luciferase assay; type: functional, cell-based
[45] = biological target: T1, G-protein coupled receptor 183; test: Agonist activity at GPR183 (unknown origin) transfected in HEK293 cells co-expressing LgBiT-fused SmBiT-beta-arrestin assessed as beta-arrestin recruitment using nanoluciferase as substrate incubated for 30 mins by bioluminescence based NanoBiT assay; type: functional, cell-based

T1 sequence (P32249 whole entry): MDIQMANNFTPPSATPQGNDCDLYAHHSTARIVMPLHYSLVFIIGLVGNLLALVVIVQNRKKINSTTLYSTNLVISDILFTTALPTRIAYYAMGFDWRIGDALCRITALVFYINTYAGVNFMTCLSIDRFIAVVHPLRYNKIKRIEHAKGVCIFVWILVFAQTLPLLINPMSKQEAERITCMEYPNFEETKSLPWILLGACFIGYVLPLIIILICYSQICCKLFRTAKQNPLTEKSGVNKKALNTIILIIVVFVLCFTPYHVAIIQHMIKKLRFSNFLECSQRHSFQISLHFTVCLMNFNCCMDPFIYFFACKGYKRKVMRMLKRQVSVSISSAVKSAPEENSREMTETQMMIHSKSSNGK

COc1ccc(C(=O)N2CC3CCC2CN3C(=O)/C=C/c2ccc(Br)cc2)cc1 (stereo not given)
pIC50 [1]: < 5.00

Nc1nc2ccc(C(=O)N3CCN(C(=O)/C=C/c4ccc(F)c(F)c4)CC3)cc2s1
pIC50 [1]: 5.90

COc1ccc(C(=O)NCC2CCN(C(=O)/C=C/c3ccc(Br)cc3)CC2)cc1
pIC50 [1]: < 5.00

Cc1cc2ccc(C(=O)N3CCN(C(=O)/C=C/c4ccc(Br)cc4)CC3)cc2[nH]1
pIC50 [1]: 8.12

COc1ccc(NC(=O)CC2CCN(C(=O)/C=C/c3ccc(Br)cc3)CC2)cc1
pIC50 [1]: 7.71

Nc1nc2ccc(C(=O)N3CCN(C(=O)/C=C/c4ccc(C(F)(F)F)c(Cl)c4)CC3)cc2s1
pIC50 [1]: 7.13

COc1ccc(C(=O)N2CCN(C(=O)/C=C/c3ccc(Br)cc3)CC2)cc1
half-life [2]: 1.17 h | Cmax [3]: 612 ng/mL | AUC(0-inf) [4]: 966 ng·h/mL | Vd [5]: 1.75 L/kg | clearance [6]: 17.3 mL/min/kg | half-life [7]: 2.19 h | Cmax [8]: 640 ng/mL | AUC(0-inf) [9]: 2070 ng·h/mL | bioavailability [10]: 71.4% | pIC50 (U-937 [11]): 8.35 | microsomal CLint [12]: 46 µL/min/mg

Cn1cnc2cc(C(=O)N3CCN(C(=O)/C=C/c4ccc(Br)cc4)CC3)ccc21
pIC50 [1]: 6.35

Nc1nc2ccc(C(=O)N3CCN(C(=O)/C=C/c4ccc5c(c4)OC(F)(F)O5)CC3)cc2s1
pIC50 [1]: 7.36

COc1cc2c(cc1OC)CN(C(=O)NOCc1ccccc1)CC2
pIC50 [13]: 7.86

CC(=O)Nc1nc2ccc(C(=O)N3CCN(C(=O)/C=C/c4ccc(Br)cc4)CC3)cc2s1
pIC50 [1]: 7.72

Nc1nc2ccc(C(=O)N3CCN(C(=O)/C=C/c4ccc5c(c4)CCO5)CC3)cc2s1
pIC50 [1]: 6.41

Nc1nc2ccc(C(=O)N3CCN(C(=O)/C=C/c4ccc(Br)cc4)CC3)cc2s1
half-life [2]: 1.61 h | Cmax [3]: 828 ng/mL | AUC(0-inf) [4]: 1920 ng·h/mL | Vd [5]: 1.21 L/kg | clearance [6]: 8.72 mL/min/kg | half-life [7]: 2.24 h | Cmax [8]: 817 ng/mL | AUC(0-inf) [9]: 4090 ng·h/mL | bioavailability [10]: 71.1% | t1/2 [14]: 2.52 h | t1/2 [15]: 2.35 h | half-life at 10 µM [16]: 6.42 h | t1/2 [17]: 1.36 h | pIC50 [18]: 9.09 | pIC50 [19]: 8.74 | Kb [20]: 0.617 nM | pIC50 [21]: 9.06 | remaining at 1 h, 1 µM [22]: 95.9% | Stability [23]: 96.2% | remaining at 1 h, 1 µM [24]: 96.5% | Stability [25]: 91.5% | Stability [26]: 98.4% | pIC50 (U-937 [11]): 9.14 | Activity (U-937 [27]): Active | Activity (U-937 [28]): Active | Activity (U-937 [29]): inactive | Activity (Mus musculus [30]): Dose-Dependent Effect | Activity (Mus musculus [31]): Active | Activity (Mus musculus [32]): Active | Activity (Mus musculus [33]): Active | Activity (Mus musculus [34]): Active | Activity (Mus musculus [35]): Active | Activity (Mus musculus [36]): Active | Activity [37]: Non-Toxic | Activity [38]: Non-Toxic | Activity [39]: Non-Toxic | Activity [40]: Non-Toxic | Activity [41]: Non-Toxic | Activity [42]: Non-Toxic | pIC50 [1]: 9.09

CNc1nc2ccc(C(=O)N3CCN(C(=O)/C=C/c4ccc(Br)cc4)CC3)cc2s1
pIC50 [1]: 8.21

Nc1nc2ccc(C(=O)N3CCN(C(=O)/C=C/c4ccc(F)cc4)CC3)cc2s1
pIC50 [1]: 6.06

C[C@H](CCCC(C)(C)O)[C@H]1CCC2C3C(CC[C@@]21C)[C@@]1(C)CC[C@H](O)CC1=C[C@H]3O (stereo not given in full)
pEC50 [43]: 9.82 | pEC50 [44]: 8.49 | Activity ([44]; filed as agonist, time 4.5 hrs): Dose-Dependent Effect | pEC50 [45]: 8.33

O=C(/C=C/c1ccc(Br)cc1)N1CCN(C(=O)c2ccc3ncsc3c2)CC1
pIC50 [1]: 8.52

N#Cc1ccc(/C=C/C(=O)N2CCN(C(=O)c3ccc4nc(N)sc4c3)CC2)cc1
pIC50 [1]: 6.59
